Source: patent US12024571B2, “Anti-erythropoietin receptor peptide” (Epo-Med Inc., priority 2018, dated 2024)
Bridge positions count the residues as written; N and C are the ends. Square brackets hold non-standard residues; d marks the D form. Ala(benzothiazol-2-yl) = N[C@@H](Cc1nc2ccccc2s1)C(=O)O; Phe(3,4-F2) = N[C@@H](Cc1ccc(F)c(F)c1)C(=O)O; Phe(3-Cl) = N[C@@H](Cc1cccc(Cl)c1)C(=O)O; Phe(4-Cl) = N[C@@H](Cc1ccc(Cl)cc1)C(=O)O; Phe(4-F) = N[C@@H](Cc1ccc(F)cc1)C(=O)O

What was measured:
[1] = system: human liver cancer derived HepG2 cells; test: Lethal effect of synthetic peptides on HepG2 cells (Trypan blue positive cell count); type: cell-based; settings: 120, 60, 30 or 15 μM, 24 hours; FIGS. 34 to 37
[2] = system: human liver cancer HepG2 cells; test: Granule leakage of HepG2 cells exposed to peptides, under a microscope; type: cell-based; settings: HepG2 cells exposed to peptide
Text: The peptides synthesized above were exposed to human liver cancer HepG2 cells and the leakage of granules under a microscope was studied. […] In view of the above, peptides GT-11258, GT-11261, and GT-11274 were expected to have a relatively strong activity.

For “Ac-SCH(3,4-difluoro-Phe)GPLT(2-quinolylalanine)VCK-NH2 [GT-11304]”, the “HepG2 cell killing effect compared with YS12 (Trypan blue positive cells per 1 mm^2)” value [1] was “equivalent or greater than that of YS12”.
In the case of “Ac-SCH(m-chloro-Phe)GPLTWVCK-NH2 (Ac-SCH[Phe(3-Cl)]GPLTWVCK-NH2; disulfide 2-11 (inferred)) [GT-11260]”, the “leakage of granules under a microscope” value [2] is reported as “relatively low degree of granule leakage” and the “HepG2 cell killing effect compared with YS12 (Trypan blue positive cells per 1 mm^2)” value [1] is reported as “equivalent or greater than that of YS12”.
For “Ac-SCH(3,4-difluoro-Phe)GPLT(2-benzothiazolylalanine)VCK-NH2 (Ac-SCH[Phe(3,4-F2)]GPLT[Ala(benzothiazol-2-yl)]VCK-NH2; disulfide 2-11 (inferred)) [GT-11305]”, the “HepG2 cell killing effect compared with YS12 (Trypan blue positive cells per 1 mm^2)” value [1] was “equivalent or greater than that of YS12”.
“Ac-SCHFGPATWVCK-NH2 (disulfide 2-11 (inferred)) [GT-11268]” was tested, and the “HepG2 cell killing effect compared with YS12 (Trypan blue positive cells per 1 mm^2)” value [1] was “equivalent or greater than that of YS12”.
In the case of “Ac-SCH(p-fluoro-Phe)GPLTWVCK-NH2 (Ac-SCH[Phe(4-F)]GPLTWVCK-NH2; disulfide 2-11 (inferred)) [GT-11258]”, the “leakage of granules under a microscope” value [2] is reported as “significant granule leakage”.
“Ac-SCH(p-fluoro-Phe)GPLT(2-benzothiazolylalanine)VCK-NH2 [GT-11307]” was tested, and the “HepG2 cell killing effect compared with YS12 (Trypan blue positive cells per 1 mm^2)” value [1] was “equivalent or greater than that of YS12”.
For “Ac-SCH(p-chloro-Phe)GPLTWVCK-NH2 (Ac-SCH[Phe(4-Cl)]GPLTWVCK-NH2; disulfide 2-11 (inferred)) [GT-11259]”, the “leakage of granules under a microscope” value [2] was “relatively low degree of granule leakage” and the “HepG2 cell killing effect compared with YS12 (Trypan blue positive cells per 1 mm^2)” value [1] was “equivalent or greater than that of YS12”.
For “Ac-kcvwtlGGfhcs-NH2 (Ac-[dK][dC][dV][dW][dT][dL]GG[dF][dH][dC][dS]-NH2; disulfide 2-11 (inferred)) [GT-11280]”, the “HepG2 cell killing effect compared with YS12 (Trypan blue positive cells per 1 mm^2)” value [1] was “equivalent or greater than that of YS12”.
“Ac-SCHYGPLTWVCK-NH2 (disulfide 2-11 (inferred)) [GT-11261]” was tested, and the “leakage of granules under a microscope” value [2] was “significant granule leakage” and the “HepG2 cell killing effect compared with YS12 (Trypan blue positive cells per 1 mm^2)” value [1] was “equivalent or greater than that of YS12”.
With “Ac-SCH(3,4-difluoro-Phe)GPLT(8-quinolylalanine)VCK-NH2 [GT-11303]” the “HepG2 cell killing effect compared with YS12 (Trypan blue positive cells per 1 mm^2)” value [1] was “equivalent or greater than that of YS12”.
For “Ac-SCHFGPLT(8-quinolylalanine)VCK-NH2 (Ac-SCHFGPLT[8‑quinolylalanine]VCK-NH2; disulfide 2-11 (inferred)) [GT-11274]”, the “leakage of granules under a microscope” value [2] was “significant granule leakage” and the “HepG2 cell killing effect compared with YS12 (Trypan blue positive cells per 1 mm^2)” value [1] was “equivalent or greater than that of YS12”.
With “Ac-SCH(p-fluoro-Phe)GPLT(2-quinolylalanine)VCK-NH2 [GT-11306]” the “HepG2 cell killing effect compared with YS12 (Trypan blue positive cells per 1 mm^2)” value [1] was “equivalent or greater than that of YS12”.
